These are literature values, as cited in publication PMC13468302, “African Polyherbal Formulations for Type 2 Diabetes: A Systematic Review and Meta-Analysis of Efficacy, Mechanisms, and Therapeutic Potential” (Plants, 2026).

In data set [1] the test system is alloxan-induced diabetic Wistar rats. To be noted: combination at 400 mg/kg; 21 days; ref [49].
In data set [2] the test system is HFD + STZ (45 mg/kg)-induced diabetic Sprague Dawley rats. The following applies: UL 100 mg/kg, metformin 50 mg/kg, UL+Met 100/50 mg/kg, insulin 2U; 28 days; ref [44].
Data set [3] relates to alloxan-induced diabetic Wistar rats. To be noted: 300 mg/kg each orally, 21 days; ref [53].

On to `COc1ccc(Cl)cc1C(=O)NCCc1ccc(S(=O)(=O)NC(=O)NC2CCCCC2)cc1` [glibenclamide], for which the serum glucose reduction in data set [1] is recorded as 56.5%. For `CN(C)C(=N)N=C(N)N` [metformin], the fasting glucose change in data set [2] is −15.34%. insulin: the fasting glucose change in data set [2] was −35.65%. In addition, the glucose reduction in data set [3] is reported as 69.1%.
